The text below walks through data of US12059413B2, “Methods of inhibiting viruses using compositions targeting TSG101-ubiquitin interaction” (The Research Foundation for the State University of New York, priority 2016, dated 2024).

In one assay the test system is HIV-1 NL4-3 P7L. The assay is described as follows: Electron microscopy of budding morphologies, WT- or P7L-NL4-3. It is filed as cell-based. The settings on record: 50 μM N16. As to the method: (§1) FIG. 15A-D. N16 inhibits HIV-1 NL4-3 and Gag VLP production. A) Effect on virus production. Virus particles from N16-treated 293T cells transfected with pNL4-3 as determined by ELISA assay. Top, The compound was added 6 hr prior to DNA transfection and tissue culture media was harvested 24 hr later. Bottom, The compound was added at the indicated concentration 24 hr after DNA transfection and tissue culture media was harvested 24 hr later. Assay values were normalized to that of the DMSO carrier control. B) Effect on virus infectivity. Infectious viral particles per ng p24 as determined by MAGI assay. C) Left, Electron microscopy of particles at cell surface at 24 hr post-N16 addition; Right, Quantitative analysis of budding morphologies. Cells expressing WT- or P7L-NL4-3 were exposed to DMSO carrier or 50 μM N16. Arrows indicate emerging ‘Early’ buds. D) Effects on Gag VLP production. Top, Western blot analysis. Cells treated at the indicated concentration were transfected with DNA encoding Gag-HA. […] Bottom, Quantitative analysis. […]
Electron microscopy was used to identify the event arrested by N16 treatment. […] Treatment of P7L with N16 blocked the residual particle release that the mutation permits (mediated by Alix, an ESCRT adaptor, Fujii, K. et al. (2009)) and shifted the predominant form detected from ‘Tethered’ to ‘Early’.

Another assay deals with HIV-1 NL4-3. Put plainly: Specific virus infectivity by MAGI assay. Type of assay: cell-based. The settings on record: higher concentrations required. On the procedure: as §1, with “morphologies.” for “morphologies. Cells expressing WT- or P7L-NL4-3 were exposed to DMSO carrier or 50 μM N16. Arrows indicate emerging ‘Early’ buds. D) Effects on Gag VLP production. Top, Western blot analysis. Cells treated at the indicated concentration were transfected with DNA encoding Gag-HA.”
For production of virus particles, 293T cells were transfected with pNL4-3-ΔEnv and pIIIB Env3-1 plasmids and for virus-like particles (VLP), with pCMV-Gag-HA as previously described (Watanabe et al. (2013)). For specific infectivity, media-associated p24 was determined by ELISA (Immunodiagnostics, Inc.) and equivalent amounts of p24 were used to infect HeLa-CD4+-LTR-3 gal cells for infectivity measurement by the multinuclear activation of a galactosidase indicator (MAGI) assay. […] Virus particle release efficiency was calculated [VLP signal intensity/(VLP signal intensity+cell lysate signal intensity)]. […]

Molecules are shown by their SMILES.

`COc1ccc2[nH]c([S+]([O-])Cc3ncc(C)c(OC)c3C)nc2n1` (centres unmarked) [N16, tenatoprazole]: the “residual particle release of P7L” value in the assay on HIV-1 NL4-3 P7L is reported as “blocked”. The “specific infectivity of the virus” value in the assay on HIV-1 NL4-3 is listed as “diminished in dose-dependent fashion”.
